Laboratory results from patent publication US20250101011A1, “PEPTIDYL NITRILE COMPOUND AND USE THEREOF” (SHANGHAI YIDIAN PHARMACEUTICAL TECHNOLOGY DEVELOPMENT CO., …, priority 2022, published 2025).

Target: DPP1 (Homo sapiens (Human), UniProt P53634)
Assay: DPP1 activity inhibition test on U937 cells
Format: cell-based
Settings: substrate h-Gly-phe-AFC; for inhibition at 0.005 µM: U-937, 5 nM compound; for inhibition at 0.05 µM: U-937, 50 nM compound; for IC50: intracellular enzyme activity
Protocol: After incubation at 37° C. for 1 h, add h-Gly-phe-AFC (10 μL) to each well and start reaction.

DPP1, sequence (P53634 25-463): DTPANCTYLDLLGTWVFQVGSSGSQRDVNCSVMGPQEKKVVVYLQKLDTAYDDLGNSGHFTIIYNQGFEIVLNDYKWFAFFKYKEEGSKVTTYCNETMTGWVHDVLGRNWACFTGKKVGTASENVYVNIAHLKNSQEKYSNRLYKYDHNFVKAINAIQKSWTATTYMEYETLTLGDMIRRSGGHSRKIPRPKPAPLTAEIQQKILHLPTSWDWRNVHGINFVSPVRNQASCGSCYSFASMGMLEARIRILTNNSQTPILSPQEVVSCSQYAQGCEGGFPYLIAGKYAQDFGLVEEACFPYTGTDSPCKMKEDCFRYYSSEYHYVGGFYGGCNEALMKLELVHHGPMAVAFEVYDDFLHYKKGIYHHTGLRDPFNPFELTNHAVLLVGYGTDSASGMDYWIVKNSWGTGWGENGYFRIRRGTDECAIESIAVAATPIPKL

| Compound | inhibition at 0.005 µM [%] | inhibition at 0.05 µM [%] | Average Inhibition % @5 nM (5 nM compound) | Average Inhibition % @50 nM (50 nM compound) | IC50 [µM] |
| --- | --- | --- | --- | --- | --- |
| Cn1c(=O)oc2ccc(-c3ccc(C[C@@H](C#N)NC(=O)[C@@H]4CNCCCO4)cc3)cc21 [AZD7986, Brensocatib, reference compound] | 30 to 75 | 75 to 100 | – | – | – |
| N#C[C@H](Cc1ccc(-c2ccc3nccn3c2)cc1)NC(=O)[C@@H]1CNCCCO1 [Compound D01] | – | – | − (“−”: inhibition % < 30%) | − (“−”: inhibition % < 30%) | – |
| N#C[C@H](Cc1ccc(-c2ccc3oc(=O)n(C4COC4)c3c2)cc1)NC(=O)[C@@H]1CNCCCO1 [Compound D03] | < 30 | 30 to 75 | – | – | – |
| N#C[C@H](Cc1ccc(-c2ccc3nncn3c2)cc1)NC(=O)[C@@H]1CNCCCO1 [Compound D05] | < 30 | < 30 | – | – | – |
| N#C[C@H](Cc1ccc(-c2ccc3nnnn3c2)cc1)NC(=O)[C@@H]1CNCCCO1 [Compound D06] | < 30 | < 30 | – | – | – |
| N#C[C@H](Cc1ccc(-c2ccc3c(c2)OC(F)(F)O3)cc1)NC(=O)[C@@H]1CNCCCO1 [Compound D07] | < 30 | 30 to 75 | – | – | – |
| N#C[C@H](Cc1ccc(-c2ccc3c(c2)CC(=O)C3)cc1)NC(=O)[C@@H]1CNCCCO1 [Compound D08] | < 30 | 30 to 75 | – | – | – |
| N#C[C@H](Cc1ccc(-c2ccc3c(c2)C(=O)CO3)cc1)NC(=O)[C@@H]1CNCCCO1 [Compound D10] | < 30 | 30 to 75 | – | – | – |
| CN1Cc2cc(-c3ccc(C[C@@H](C#N)NC(=O)[C@@H]4CNCCCO4)cc3)sc2C1=O [Compound D12] | < 30 | < 30 | – | – | – |
| N#C[C@H](Cc1ccc(-c2cc3c(s2)CNC3=O)cc1)NC(=O)[C@@H]1CNCCCO1 [Compound D13] | < 30 | < 30 | – | – | – |
| CN1Cc2sc(-c3ccc(C[C@@H](C#N)NC(=O)[C@@H]4CNCCCO4)cc3)cc2C1=O [Compound D14] | < 30 | 30 to 75 | – | – | – |
| CN1CCN(S(=O)(=O)c2ccc(-c3ccc(C[C@@H](C#N)NC(=O)[C@@H]4CNCCCO4)cc3)cc2)CC1 [Compound D16] | < 30 | 30 to 75 | – | – | – |
| Cn1c(=O)oc2cc(-c3ccc(C[C@@H](C#N)NC(=O)[C@@H]4CNCCCO4)cc3)ccc21 [Compound D17] | < 30 | 30 to 75 | – | – | – |
| CN1CCc2nc(-c3ccc(C[C@@H](C#N)NC(=O)[C@@H]4CNCCCO4)cc3)sc2C1 [Compound D18] | < 30 | 30 to 75 | – | – | – |
| N#C[C@H](Cc1ccc(-c2ccc3c(c2)C2(COC2)OC3)cc1)NC(=O)[C@@H]1CNCCCO1 [Compound D22] | 30 to 75 | 75 to 100 | – | – | – |
| CNS(=O)(=O)c1ccc(-c2ccc(C[C@@H](C#N)NC(=O)[C@@H]3CNCCCO3)cc2)cc1 [Compound D23] | < 30 | < 30 | – | – | – |
| CN1CC(n2c(=O)oc3ccc(-c4ccc(C[C@@H](C#N)NC(=O)[C@@H]5CNCCCO5)cc4)cc32)C1 [Compound D24] | 30 to 75 | 75 to 100 | – | – | – |
| CN1CCC2(CC1)OC(=O)c1ccc(-c3ccc(C[C@@H](C#N)NC(=O)[C@@H]4CNCCCO4)cc3)cc12 [Compound D25] | 30 to 75 | 75 to 100 | – | – | – |
| CN1CCC2(CC1)OCc1ccc(-c3ccc(C[C@@H](C#N)NC(=O)[C@@H]4CNCCCO4)cc3)cc12 [Compound D27] | < 30 | 30 to 75 | – | – | – |
| N#C[C@H](Cc1ccc(-c2ccc3c(n2)C2(CCN(C4COC4)CC2)OC3=O)cc1)NC(=O)[C@@H]1CNCCCO1 [Compound D28] | 30 to 75 | 75 to 100 | – | – | – |

| Compound | inhibition at 0.005 µM [%] | inhibition at 0.05 µM [%] | Average Inhibition % @5 nM (5 nM compound) | Average Inhibition % @50 nM (50 nM compound) | IC50 [µM] |
| --- | --- | --- | --- | --- | --- |
| CN1CCC2(CC1)OC(=O)c1ccc(-c3ccc(C[C@@H](C#N)NC(=O)[C@@H]4CNCCCO4)cc3)nc12 [Compound D29] | 30 to 75 | 75 to 100 | – | – | – |
| N#C[C@H](Cc1ccc(-c2ccc3c(n2)C2(CCN(C4COC4)CC2)OC3)cc1)NC(=O)[C@@H]1CNCCCO1 [Compound D30] | < 30 | 30 to 75 | – | – | – |
| CN1CCC2(CC1)OCc1ccc(-c3ccc(C[C@@H](C#N)NC(=O)[C@@H]4CNCCCO4)cc3)nc12 [Compound D31] | < 30 | 30 to 75 | – | – | – |
| C[C@H](O)Cn1c(=O)oc2ccc(-c3ccc(C[C@@H](C#N)NC(=O)[C@@H]4CNCCCO4)cc3)cc21 [Compound D32] | < 30 | 30 to 75 | – | – | – |
| CO[C@@H](C)Cn1c(=O)oc2ccc(-c3ccc(C[C@@H](C#N)NC(=O)[C@@H]4CNCCCO4)cc3)cc21 [Compound D33] | < 30 | 30 to 75 | – | – | – |
| C[C@@H](O)Cn1c(=O)oc2ccc(-c3ccc(C[C@@H](C#N)NC(=O)[C@@H]4CNCCCO4)cc3)cc21 [Compound D34] | < 30 | 30 to 75 | – | – | – |
| CO[C@H](C)Cn1c(=O)oc2ccc(-c3ccc(C[C@@H](C#N)NC(=O)[C@@H]4CNCCCO4)cc3)cc21 [Compound D35] | < 30 | 30 to 75 | – | – | – |
| CN1CCC2(C1)OCc1ccc(-c3ccc(C[C@@H](C#N)NC(=O)[C@@H]4CNCCCO4)cc3)cc12 (stereo partly drawn) [Compound D36] | < 30 | 30 to 75 | – | – | – |
| CN1CCC2(C1)OC(=O)c1ccc(-c3ccc(C[C@@H](C#N)NC(=O)[C@@H]4CNCCCO4)cc3)cc12 (stereo partly drawn) [Compound D37] | < 30 | 30 to 75 | – | – | – |
| CN1CCC2(CC1)OC(=O)c1cnc(-c3ccc(C[C@@H](C#N)NC(=O)[C@@H]4CNCCCO4)cc3)cc12 [Compound D38] | < 30 | 30 to 75 | – | – | – |
| CN1CCC2(CC1)OCc1cnc(-c3ccc(C[C@@H](C#N)NC(=O)[C@@H]4CNCCCO4)cc3)cc12 [Compound D39] | < 30 | 30 to 75 | – | – | – |
| CC1(C)OC(=O)c2ccc(-c3ccc(C[C@@H](C#N)NC(=O)[C@@H]4CNCCCO4)cc3)cc21 [Compound D42] | 30 to 75 | 75 to 100 | – | – | 0.015 |
| N#C[C@H](Cc1ccc(-c2ccc3c(c2)C(=O)CC3)cc1)NC(=O)[C@@H]1CNCCCO1 [Compound D43] | < 30 | 30 to 75 | – | – | – |
| N#C[C@H](Cc1ccc(-c2ccc3c(c2)C(=O)OC3)cc1)NC(=O)[C@@H]1CNCCCO1 [Compound D45] | < 30 | 30 to 75 | – | – | – |
| Cn1c(=O)oc2ccc(-c3ccc(C[C@@H](C#N)NC(=O)[C@@H]4CNCC5(CC5)CO4)nc3)cc21 [Compound D47] | < 30 | 75 to 100 | – | – | – |
| Cn1c(=O)oc2ccc(-c3ccc(C[C@@H](C#N)NC(=O)[C@@H]4CNCC5(CC5)CO4)nn3)cc21 [Compound D48] | 30 to 75 | 75 to 100 | – | – | 0.012 |
| Cn1c(=O)oc2ccc(-c3ccc(C[C@@H](C#N)NC(=O)[C@@H]4CNCc5ccccc5O4)cc3)cc21 [Compound D49] | < 30 | 30 to 75 | – | – | – |
| Cn1c(=O)oc2ccc(-c3ccc(C[C@@H](C#N)NC(=O)[C@@H]4CNCC(C)(C)CO4)cc3)cc21 [Compound D50] | – | – | – | – | > 1 |
| Cn1c(=O)oc2ccc(-c3ccc(C[C@@H](C#N)NC(=O)[C@@H]4CNCC(F)(F)CO4)cc3)cc21 [Compound D51] | – | – | – | – | > 1 |
